Assay results as given in ChEMBL document CHEMBL2202968, “2-Styrylindolium based fluorescent probes visualize neurofibrillary tangles in Alzheimer's disease” (Bioorg Med Chem Lett, 2012).
Active and inactive are the calls of the source. The rule behind the calls is not given here.

Experiments:
[1] = Displacement of thiazine red R from amyloid beta (1 to 40) aggregate after 30 mins by fluorimetric analysis
[2] = molecular target: T1, Microtubule-associated protein tau (Homo sapiens, UniProt P10636); assay: Displacement of thiazine red R from human Tau aggregate expressed in Escherichia coli after 30 mins by fluorimetric analysis
T1 sequence (P10636 whole entry): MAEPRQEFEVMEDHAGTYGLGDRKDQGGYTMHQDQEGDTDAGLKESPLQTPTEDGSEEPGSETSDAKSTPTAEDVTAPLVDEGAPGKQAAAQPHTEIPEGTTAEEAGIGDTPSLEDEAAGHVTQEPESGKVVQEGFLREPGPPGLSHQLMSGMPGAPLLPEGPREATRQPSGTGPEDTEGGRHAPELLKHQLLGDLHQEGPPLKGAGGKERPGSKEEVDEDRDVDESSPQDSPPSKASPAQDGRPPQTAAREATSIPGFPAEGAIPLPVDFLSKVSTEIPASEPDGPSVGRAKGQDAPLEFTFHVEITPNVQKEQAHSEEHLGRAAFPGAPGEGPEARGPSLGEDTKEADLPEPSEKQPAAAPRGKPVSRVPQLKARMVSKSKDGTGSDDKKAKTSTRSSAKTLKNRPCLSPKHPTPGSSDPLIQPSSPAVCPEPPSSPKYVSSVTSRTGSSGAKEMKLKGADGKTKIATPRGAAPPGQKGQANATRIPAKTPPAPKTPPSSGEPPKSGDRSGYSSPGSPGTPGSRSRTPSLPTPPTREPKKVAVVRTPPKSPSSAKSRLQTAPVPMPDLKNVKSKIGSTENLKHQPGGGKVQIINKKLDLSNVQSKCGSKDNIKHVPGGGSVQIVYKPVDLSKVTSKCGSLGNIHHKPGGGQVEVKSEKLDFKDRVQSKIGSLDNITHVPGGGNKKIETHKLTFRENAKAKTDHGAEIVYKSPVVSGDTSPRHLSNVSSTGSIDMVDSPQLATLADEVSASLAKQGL

[3] = molecular target: T1, Microtubule-associated protein tau; assay: Binding affinity to Tau aggregates in Alzheimer patient hippocampus by fluorescence microscopy; format: tissue-based
HepG2 = assay: Cytotoxicity against human HepG2 cells after 24 hrs; format: cell-based; settings: HepG2, 24 h
[4] = molecular target: Amyloid-beta precursor protein (Homo sapiens) (UniProt P05067); assay: Binding affinity to amyloid beta aggregates in Alzheimer patient hippocampus by fluorescence microscopy; format: tissue-based
Amyloid-beta precursor protein (Homo sapiens), sequence (P05067 whole entry): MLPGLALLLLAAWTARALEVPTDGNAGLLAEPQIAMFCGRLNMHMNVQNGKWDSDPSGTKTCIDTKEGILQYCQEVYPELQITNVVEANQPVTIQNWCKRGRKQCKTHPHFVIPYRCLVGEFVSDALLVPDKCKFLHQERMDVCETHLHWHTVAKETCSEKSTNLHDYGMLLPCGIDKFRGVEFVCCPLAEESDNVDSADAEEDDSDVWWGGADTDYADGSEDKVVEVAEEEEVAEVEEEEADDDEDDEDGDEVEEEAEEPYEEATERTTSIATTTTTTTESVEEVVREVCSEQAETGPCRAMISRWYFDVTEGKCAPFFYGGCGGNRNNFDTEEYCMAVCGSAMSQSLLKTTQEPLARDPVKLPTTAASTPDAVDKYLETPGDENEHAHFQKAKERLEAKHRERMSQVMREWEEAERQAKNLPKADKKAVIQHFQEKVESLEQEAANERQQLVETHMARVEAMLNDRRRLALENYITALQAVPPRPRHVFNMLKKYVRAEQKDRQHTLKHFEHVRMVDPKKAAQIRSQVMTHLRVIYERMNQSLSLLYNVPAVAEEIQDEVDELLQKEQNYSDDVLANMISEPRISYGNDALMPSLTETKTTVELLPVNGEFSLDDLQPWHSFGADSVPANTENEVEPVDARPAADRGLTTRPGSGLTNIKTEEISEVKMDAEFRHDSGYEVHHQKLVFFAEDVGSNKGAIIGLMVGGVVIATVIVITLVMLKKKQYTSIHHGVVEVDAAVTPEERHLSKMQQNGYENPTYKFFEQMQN

[5] = Aqueous solubility of the compound; format: physicochemical; settings: buffer
Danio rerio [6] = species: Danio rerio; assay: Toxicity against Zebra fish embryo assessed as lesions up to 10 uM at 24 hrs post-fertilization by microscopic analysis; format: organism-based; settings: zebrafish, in vivo
Danio rerio [7] = species: Danio rerio; assay: Toxicity against juvenile Zebra fish assessed as lesions in yolk sac up to 10 uM at 72 hrs post-fertilization by microscopic analysis; format: organism-based; settings: zebrafish, in vivo
[8] = Binding affinity to amyloid beta (1 to 40) aggregate

Structure (SMILES): CNc1ccc(-c2ccc3ccccc3n2)cc1
- IC50 [1]: > 10000 nM
- IC50 [2]: > 10000 nM

Structure (SMILES): CNc1ccc(-c2nc3ccc(O)cc3s2)cc1 [PITTSBURGH COMPOUND B UNLABELLED]
- IC50 [2]: 3260 nM

Structure (SMILES): C[N+]1=C(/C=C/c2ccc(N3CCCC3)cc2)C(C)(C)c2ccccc21.[I-]
- Activity [3]: Active
- EC50 (HepG2): 8310 nM
- Activity [4]: inactive
- solubility [5]: > 500 µg/mL
- IC50 [2]: 5.1 nM
- Activity (Danio rerio [6]): Non-toxic

Structure (SMILES): CCN(CC)c1ccc(/C=C/C2=[N+](C)c3ccccc3C2(C)C)cc1.[I-]
- Activity [3]: Active
- EC50 (HepG2): 8570 nM
- Activity [4]: inactive
- solubility [5]: > 500 µg/mL
- Activity (Danio rerio [6]): Non-toxic

Structure (SMILES): C[N+]1=C(/C=C/c2ccc(O)cc2)C(C)(C)c2ccccc21.[I-]
- Activity [3]: Active
- Activity [4]: inactive
- solubility [5]: > 500 µg/mL

Structure (SMILES): COc1ccc(/C=C/C2=[N+](C)c3ccccc3C2(C)C)cc1.[I-]
- Activity [3]: Active
- EC50 (HepG2): 10900 nM
- Activity [4]: inactive
- solubility [5]: > 500 µg/mL
- Activity (Danio rerio [6]): Non-toxic

Structure (SMILES): CCCC[N+]1=C(/C=C/c2ccc(N(CC)CC)cc2)C(C)(C)c2ccccc21.[I-]
- Activity [3]: Active
- IC50 [1]: 1.37 nM
- Activity (Danio rerio [7]): Toxic
- EC50 (HepG2): 930 nM
- Activity [4]: inactive
- solubility [5]: > 100 µg/mL
- IC50 [2]: 1.41 nM
- Activity (Danio rerio [6]): Non-toxic

Structure (SMILES): COc1cc(/C=C/c2ccc(O)cc2)ccc1/C=C/c1ccc(O)cc1
- Ki [8]: 26.8 nM
- IC50 [1]: 140 nM

Structure (SMILES): CN1CCN(c2ccc(/C=C/C3=[N+](C)c4ccccc4C3(C)C)cc2)CC1.[I-]
- Activity [3]: Active
- Activity [4]: inactive
- solubility [5]: > 500 µg/mL

Structure (SMILES): CC(=C(C#N)C#N)c1ccc2cc(N(C)CCF)ccc2c1
- IC50 [1]: 1470 nM
- IC50 [2]: 1630 nM
